According to patent US20070004805A1, “Process for preparation of liquid dosage form containing sodium 4-phenylbutyrate” (Navinta LLC, priority 2005, published 2007):

What was measured:
[1] = cold storage of the highly concentrated aqueous solution (freezing / precipitation); format: physicochemical
Protocol: As described in more detail below, this invention describes a process of preparing a highly concentrated solution of sodium 4-phenylbutyrate, having a concentration 500 mg/mL in water by dissolving 5 g of sodium 4-phenylbutyrate in about 3.5 mL water to yield a solution volume of about 10 mL. The temperature can be room temperature (25° C.) or an elevated temperature, preferably in the range of up to about 80° C. We found it is more difficult to make this solution at room temperature, but the solution can be made at a higher temperature and then cooled to room temperature without precipitating resulting. […] Therefore, due to likely micelle formation of sodium 4-phenylbutyrate (which we term the self-associated polymeric form), the high concentration of about 500 mg/mL can be achieved in solution. […] This novel invention thus provides a dosage form better able to help the patients presently administered with a high volume dosage of sodium 4-phenylbutyrate. This invention is not intended to be limited by this discussion of micellar phases, or the presence or absence of other high concentration phases (such as sponge or L3, worm-like micelles, sheets and other laminar phases) that may be formed depending on the particular processing conditions and/or materials used. In the follow description the term “solution” is used without regard to whether a micellar phase is present.
About 160 g of sodium 4-phenylbutyrate was transferred to a 250 mL volumetric flask to which was then added about 90 mL of water and agitated with heating at a temperature 70° C. to dissolve. The mixture was cooled to 25° C. and 0.5 g of sodium benzoate was added and mixed well. This solution was compounded to 250 mL with water.

[2] = solubility / achievable concentration of sodium 4-phenylbutyrate in water; format: physicochemical
Protocol: In another embodiment, this invention provides a process of preparing a supersaturated solution of sodium 4-phenylbutyrate in water by adding sufficient water to a known quantity of sodium 4-phenylbutyrate at an elevated temperature of about 30° to about 80° C. to produce a concentration of about 600 mg/mL.
As described in more detail below, this invention describes a process of preparing a highly concentrated solution of sodium 4-phenylbutyrate, having a concentration 500 mg/mL in water by dissolving 5 g of sodium 4-phenylbutyrate in about 3.5 mL water to yield a solution volume of about 10 mL. The temperature can be room temperature (25° C.) or an elevated temperature, preferably in the range of up to about 80° C. We found it is more difficult to make this solution at room temperature, but the solution can be made at a higher temperature and then cooled to room temperature without precipitating resulting. […] Therefore, due to likely micelle formation of sodium 4-phenylbutyrate (which we term the self-associated polymeric form), the high concentration of about 500 mg/mL can be achieved in solution. […] This novel invention thus provides a dosage form better able to help the patients presently administered with a high volume dosage of sodium 4-phenylbutyrate. […]

freezing of the solution ([1]; 600 mg/mL solution at 0° C.): does not freeze
freezing or precipitation upon storage ([1]; about 500 mg/mL solution, 0° C. for two days): did not freeze or precipitate out
precipitation on further cooling ([1]; about 500 mg/mL solution, cooled to −4° C.): precipitation observed
high concentration achieved in solution ([2]; in water, made at room temperature (25° C.) or up to about 80° C., then cooled without precipitation): about 500 mg/mL
maximum drug concentration achieved in the formulation ([2]; supersaturated solution in aqueous medium): about 700 mg/mL
SMILES: O=C([O-])CCCc1ccccc1.[Na+] [sodium 4-phenylbutyrate]
